Reference: patent US20210262025A1, “MULTIPLEXED IN VIVO DISEASE SENSING WITH NUCLEIC ACID-BARCODED REPORTERS” (Massachusetts Institute of Technology, priority 2020, published 2021)
Entries after “also recorded” stand apart in the source; their conditions may differ. Strand notation (5' to 3'): a small letter for the sugar, then the base; units joined by * are phosphorothioate-linked, units joined directly phosphodiester-linked; [ ] holds rarer units or linkages, { } end groups; capitals alone tell only the bases. Primed or numbered codes have the meaning given here. Where no end group is shown, it is not given here. [ ]: non-standard residue; d: D form. The star is where a group is joined. 5FAM = O=C1OC2(c3ccc(O)cc3Oc3cc(O)ccc32)c2ccc(C(=O)*)cc21; PEG2′ = not defined here; d = 2'-deoxy (DNA); CPQ2 = quencher

Assays:
LbaCas12a [1] = assay: Cas12a fluorescent cleavage assay with urine of mice injected with DNA activators; type: in vivo, Lachnospiraceae bacterium ND2006; settings: urine collected after 1 h added to reaction
Excerpt: (§1) In particular, the Cas12a from Lachnospiraceae bacterium ND2006 (LbaCas12a, UniProtKB Accession No. A0A182DWE3) assembled with guide CRISPR RNA sequences (crRNAs) recognizes 1) a T nucleotide-rich protospacer-adjacent motif (PAM) to target double-stranded DNA (dsDNA), or 2) single-stranded DNA (ssDNA) through sequence complementarity in a PAM-independent manner, and unleashes a robust, nonspecific ssDNA trans-cleavage activity that can be monitored using a fluorophore (F)-quencher (Q)-labeled reporter (FIG. 2A) (Chen et al. Science 360, 436-439 (2018)). […] In Table 6, activation of Cas12a with native and modified DNA oligos was quantified in the Cas12a fluorescent cleavage assay. […]
(§2) LbCas12a (final concentration 100 nM, New England Biolabs) was incubated with 1× NEB BUFFER™ 2.1, crRNA (250 nM, IDT) and complementary DNA activators (4 nM unless specifically described, IDT, in solution or spiked in urine) or urine samples collected from experimental animals at 37° C. for 30 min. […] LbCas12a activation was detected at 37° C. every 2 min for 3 hours by measuring fluorescence with plate reader Tecan Infinite Pro M200 (λex: 485 nm and λem: 535 nm). Fluorescence for background conditions (either no DNA activator input or no crRNA conditions) were run with each assay to generate background fluorescence as negative controls. […]

LbaCas12a [2] = assay: Cas12a fluorescent cleavage assay, DNA activators in solution; type: biochemical, Lachnospiraceae bacterium ND2006
Excerpt: as §1, §2

tumor tissue homogenates = assay: Tissue lysate proteolytic cleavage assay of FRET-paired peptide substrates; type: biochemical, Balb/c mice; settings: tumor-bearing or healthy lung tissue homogenates, ex vivo
Description: FIGS. 6A-6E show experiments relating to portable monitoring invasive CRC using DNA-encoded multiplex synthetic urine biomarkers. […] Peptide cleavage kinetics were monitored and cleavage rates were plotted (n=5 mice per group; ±SEM; unpaired t-test with Welch's correction, **P<0.01, ****P<0.0001). […] All urine samples were collected at 1 h after sensor administration. Cas12a trans-cleavage assays were performed against each DNA-barcode with the fluorophore-quencher paired reporter. Initial reaction velocity (V0) of the Cas12a trans-cleavage assays were calculated and normalized to that of saline injected control animals (n=8 or 10 mice per group; ±SEM; unpaired t-test with Welch's correction, *P<0.05, **P<0.01). The initial reaction velocity (V0) refers to the slope of the curve at the beginning of a reaction. […] Band intensities were quantified using ImageJ. […] ROC analysis utilized ratio of quantified cleaved reporter band intensity over its corresponding control band intensity. Dashed line represents an AUC of 0.5, and a perfect AUC is 1.0.
Tissue samples were homogenized in PBS and centrifuged at 4° C. for 5 min at 6,000×g. Supernatant was further centrifuged at 14,000×g for 25 min at 4° C. Protein concentration was measured using ThermoFisher BCA Protein Assay Kit and prepared at 2 mg/mL prior to assay. Assays were performed in the 384-well plate in triplicate in enzyme-specific buffer with peptides (1 μM) and cell lysates (0.33 mg/mL) in 30 μL at 37° C. Fluorescence was measured at Ex/Em 485/535 nm using a Tecan Infinite 200pro microplate reader (Tecan). Signal increase at 60 min was used across conditions.

[3] = system: serine and metalloproteases; assay: Recombinant protease substrate cleavage assay; type: biochemical
Description: Fluorogenic protease substrates with fluorophore (FAM) and quencher (CPQ2) were synthesized by CPC Scientific Inc. Recombinant proteases were purchased from Enzo Life Sciences and R&D Systems. Assays were performed in the 384-well plate in triplicate in enzyme-specific buffer with peptides (1 μM) and proteases (40 nM) in 30 μL at 37° C. Fluorescence was measured at Ex/Em 485/535 nm using a Tecan Infinite 200pro microplate reader (Tecan). Signal increase at 60 min was used across conditions.

FRET-PAP11 = system: T1, FRET-PAP11
T1 sequence: GGGSGRSANAKGKGC

subcutaneous PC-3 tumors = system: subcutaneous PC-3 tumors; set-up: species or system nude mice; settings: mouse, in vivo
Description: Studies were performed in experimental animals with near-infrared dye labeled agents to minimize interference from autofluorescent background. Balb/c mice were intravenously injected with Cy5-labeled modified or native DNA molecules at 1 nmol per mouse, n=3 per condition. Urine samples from each mouse was collected at 30 min, 1, 2, 3, 4 hours after injection. C-met nanobodies were coupled with Sulfo-Cyanine7 NHS ester (Lumiprobe), reacted overnight, purified by spin filtration and injected into PC-3 tumor-bearing nude mice (1.5 nmol dye eq. of protein) via i.v. injection. After 24 hours, mice were euthanized and necropsy was performed to remove the tumors, lungs, heart, kidneys, liver, and spleen. Urine, blood and organs were scanned using IVIS Imaging Systems and ODYSSEY® CLx (LI-COR). Organ fluorescence was quantified in ImageStudio of ODYSSEY® CLx. Blood circulatory kinetics were monitored in Balb/c mice by serial blood draws at 10 min, 30 min, 120 min and 180 min after i.v. injection of Cy5-labeled DNA or PEG at 1 nmol dye per mouse. Blood for pharmacokinetics measurements was collected using tail vain bleeds. Blood was diluted in PBS with 5 mM EDTA to prevent clotting, centrifuged for 5 min at 5,000×g, and fluorescent reporter concentration was quantified in 384-well plates relative to standards (LI-COR ODYSSEY® CLx).

[4] = Solubility of purified recombinant nanobody; type: physicochemical; settings: after affinity and size-exclusion chromatography
Excerpt: One major challenge for diagnosis and therapy of cancer is tailoring multiple disease signatures, which are defined by biological differences spanning genetic, transcriptomic, and proteomic differences between tumor and healthy tissue, while minimizing off-target effects (Hunter, K. Nature reviews. Cancer 2006, 6, 141). To this end, a tumor-targeting nanobody was re-engineered to construct protease-activatable nanobodies through programmable genetic encoding (FIGS. 5A-5B). Protease-activatable nanobodies were constructed by inserting a well characterized PLAU substrate (PQ2: GGSGRSANAK (SEQ ID NO: 3)) with an unpaired cysteine for one-step site-specific labeling of cargos via a thio-ether bond (see, e.g., Masa et al., Bioconjugate chemistry 2014, 25, 979). The cysteine was introduced at the carboxyl terminus, positioning the conjugation-site on the opposite side of the antigen-binding region to avoid antigen binding interference. To prevent possible misfolding caused by the internal disulfide bond present in the Nb, the peptide substrate with cysteine is spaced by a rigid linker (SPSTPPTPSPSTPP (SEQ ID NO: 6)) from the Nb sequence.

cMET = target: T2, cMET (human, UniProt P08581 25-1390); assay: in vivo biodistribution (IVIS imaging) of Cy7-labelled nanobody after i.v. injection into nude mice bearing cMET-expressing PC-3 xenografts
T2 construct: whole, on cells; The target is presented on cMET- and PLAU-expressing tumors derived from PC-3 cells in nude mice; It is not a purified protein
T2 sequence (P08581 25-1390): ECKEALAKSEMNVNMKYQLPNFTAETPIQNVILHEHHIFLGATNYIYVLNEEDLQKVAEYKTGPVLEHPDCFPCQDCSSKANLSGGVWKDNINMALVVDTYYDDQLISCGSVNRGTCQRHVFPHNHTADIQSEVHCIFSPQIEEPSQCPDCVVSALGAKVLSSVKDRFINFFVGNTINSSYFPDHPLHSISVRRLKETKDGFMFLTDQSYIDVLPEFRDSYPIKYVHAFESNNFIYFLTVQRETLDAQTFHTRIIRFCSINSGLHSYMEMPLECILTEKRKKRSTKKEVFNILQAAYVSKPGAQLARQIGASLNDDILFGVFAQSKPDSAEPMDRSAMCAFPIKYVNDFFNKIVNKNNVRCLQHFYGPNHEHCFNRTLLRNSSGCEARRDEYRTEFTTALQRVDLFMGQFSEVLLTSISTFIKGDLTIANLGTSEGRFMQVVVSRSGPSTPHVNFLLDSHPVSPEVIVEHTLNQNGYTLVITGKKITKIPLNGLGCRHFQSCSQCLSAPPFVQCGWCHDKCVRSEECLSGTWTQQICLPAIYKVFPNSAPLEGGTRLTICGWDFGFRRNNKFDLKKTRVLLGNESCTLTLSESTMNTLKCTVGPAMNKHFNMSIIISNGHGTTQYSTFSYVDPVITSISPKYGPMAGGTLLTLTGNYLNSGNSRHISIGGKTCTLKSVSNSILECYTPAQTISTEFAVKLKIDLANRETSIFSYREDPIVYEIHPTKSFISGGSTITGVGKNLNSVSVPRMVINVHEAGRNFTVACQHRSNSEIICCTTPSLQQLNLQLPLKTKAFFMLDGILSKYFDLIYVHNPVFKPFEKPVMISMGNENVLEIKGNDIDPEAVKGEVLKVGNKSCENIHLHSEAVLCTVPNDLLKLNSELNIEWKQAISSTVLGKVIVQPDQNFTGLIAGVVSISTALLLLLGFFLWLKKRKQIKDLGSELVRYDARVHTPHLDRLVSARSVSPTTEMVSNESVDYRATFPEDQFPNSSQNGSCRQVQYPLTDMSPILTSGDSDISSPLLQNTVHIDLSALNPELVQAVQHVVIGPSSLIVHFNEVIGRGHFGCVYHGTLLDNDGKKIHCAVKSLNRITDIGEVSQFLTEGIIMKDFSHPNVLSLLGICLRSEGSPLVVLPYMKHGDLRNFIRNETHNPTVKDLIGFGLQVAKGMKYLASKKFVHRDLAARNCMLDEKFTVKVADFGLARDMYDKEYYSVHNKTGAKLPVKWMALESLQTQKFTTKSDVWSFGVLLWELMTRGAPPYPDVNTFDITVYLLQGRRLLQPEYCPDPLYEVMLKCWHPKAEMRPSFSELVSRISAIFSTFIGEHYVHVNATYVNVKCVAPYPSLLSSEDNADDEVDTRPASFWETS

Molecule: 10 mer: native ssDNA activator CGTAACGATC (SEQ ID NO: 28) (unmodified DNA)
- Native DNA in vivo (V0) (LbaCas12a [1]; 1 nmol native DNA activator injected into healthy Balb/c mice): 0.00
- Native DNA in vitro (V0) (LbaCas12a [2]; initial reaction velocity, 4 nM of native DNA activator per reaction): 0.00

Molecule: FRET-PAP7: 5FAM-GGPLGVRGKK(CPQ2)-PEG2-GC (SEQ ID NO: 61) (5FAM-GGPLGVRGKK(CPQ2)[PEG2′]GC)
- cleavage by tissue homogenates (tumor tissue homogenates): specifically cleaved

Molecule: FRET-PAP9: 5FAM-GGfPRSGGGK(CPQ2)-PEG2-GC (SEQ ID NO: 63)
- cleavage by tissue homogenates (tumor tissue homogenates): specifically cleaved; also recorded: distinct cleavage patterns
- cleavage by recombinant proteases in vitro [3]: cleaved by serine and metalloproteases in vitro

Molecule: FRET-PAP11: 5FAM-GGGSGRSANAKG-K(CPQ2)-PEG2-GC (SEQ ID NO: 65) (5FAM-GGGSGRSANAKGK(CPQ2)[PEG2′]GC)
- cleavage by tissue homogenates (tumor tissue homogenates): specifically cleaved

Molecule: FRET-PAP13: 5FAM-GGVPRGG-K(CPQ2)-PEG2-GC (SEQ ID NO: 67) (5FAM-GGVPRGGK(CPQ2)[PEG2′]GC)
- cleavage by tissue homogenates (tumor tissue homogenates): specifically cleaved

Molecule: Mod 10 mer: fully phosphorothioate-modified ssDNA activator, SEQ ID NO: 35 (DNA dC*dG*dT*dA*dA*dC*dG*dA*dT*dC)
- Modified DNA in vivo (V0) (LbaCas12a [1]; 1 nmol modified DNA activator injected into healthy Balb/c mice): 0.01
- Modified DNA in vitro (V0) (LbaCas12a [2]; initial reaction velocity (slope at beginning of reaction), 4 nM of phosphorothioate-modified DNA activator per reaction): 0.01

Molecule: PLAU (urokinase-type plasminogen activator), recombinant
- cleavage of FRET-paired peptide substrate by recombinant protease (fluorogenic activity assay, FIG. 13D) (FRET-PAP11): The peptide substrate specifically responded to the PCa-associated protease PLAU

B1: cMET nanobody: PLAU-activated, cMET-targeting nanobody with rigid linker, PLAU substrate and unpaired cysteine, SEQ ID NO: 71 (protein)
VHH: MEVQLVESGGGLVQPGGSLRLSCAASGFILDYYAIGWFRQAPGKEREGVLCIDASDDITYYADSVKGRFTISRDNAKNTVYLQMNSLKPEDTGVYYCATPIGLSSSCLLEYDYDYWGQGTLVTVSSGSHHHHHHSPSTPPTPSPSTPPGSGRSANAKGGGSC
- tumor trafficking upon systemic administration (subcutaneous PC-3 tumors): mediated active tumor trafficking
- solubility [4]: comparable solubility with the original Nb

B2: cMET nanobody (PLAU-activated, cMET-targeting nanobody) (VHH)
VHH: EVQLVESGGGLVQPGGSLRLSCAASGFILDYYAIGWFRQAPGKEREGVLCIDASDDITYYADSVKGRFTISRDNAKNTVYLQMNSLKPEDTGVYYCATPIGLSSSCLLEYDYDYWGQGTLVTVSS
modifications: labelled with Sulfo-Cyanine7 NHS ester for the biodistribution study (sites not given)
notes: also called C-met nanobodies; Nb-PAS
- binding result (cMET): binds

B3: GFP nanobody: non-targeting nanobody against GFP (Clone LaG-16) with rigid linker, PLAU substrate and cysteine, SEQ ID NO: 72 (protein)
VHH: MAQVQLVESGGRLVQAGDSLRLSCAASGRTFSTSAMAWFRQAPGREREFVAAITWTVGNTILGDSVKGRFTISRDRAKNTVDLQMDNLEPEDTAVYYCSARSRGYVLSVLRSVDSYDYWGQGTQVTVSGSHHHHHHSPSTPPTPSPSTPPGSGRSANAKGGGSC
- tumor trafficking upon systemic administration (subcutaneous PC-3 tumors): did not
